Data on 35 compounds can be found in patent publication US20240279236A1, “COMPOUNDS AND METHODS OF TREATING TUBERCULOSIS” (Fimbrion Therapeutics, Inc., priority 2021, published 2024).

Some results are limits rather than exact numbers.

The subject of this test is WT Mtb Erdman strain. Description: Microplate Alamar Blue Assay (MABA), Mtb growth inhibition. The test is classed as cell-based, Mycobacterium tuberculosis. Conditions: Mycobacterium tuberculosis, ERDMAN, 168 h, Middlebrook 7H9 media, 7 days at 37° C. in 5% CO2.
For the compound `CCc1nc(NCCCc2ccc(-c3ccc(Cl)cc3)cc2)c2cc(C)sc2n1` [Example 273, N-(3-(4′-chloro-[1,1′-biphenyl]-4-yl)propyl)-2-ethyl-6-methylthieno[2,3-d]pyrimidin-4-amine], the IC50 – broadly, the concentration that gives 50% inhibition – was 0.038 µM. Under `CCc1nc(NCCCc2ccc(-c3ccc(OC)cc3)cc2)c2cc(C)sc2n1` [Example 274, 2-ethyl-N-(3-(4′-methoxy-[1,1′-biphenyl]-4-yl)propyl)-6-methylthieno[2,3-d]pyrimidin-4-amine] stands 0.076 µM; under `CCc1nc(NCCCc2ccc(-c3cccnc3)cc2)c2cc(C)sc2n1` [Example 275, 2-ethyl-6-methyl-N-(3-(4-(pyridin-3-yl)phenyl)propyl) thieno[2,3-d]pyrimidin-4-amine], 0.18 µM; under `CCc1nc(NCCCc2ccc(-c3ccc(F)c(F)c3)cc2)c2cc(C)sc2n1` [Example 276, N-(3-(3′,4′-difluoro-[1,1′-biphenyl]-4-yl)propyl)-2-ethyl-6-methylthieno[2,3-d]pyrimidin-4-amine], 0.93 µM. The compound `CCc1nc(NCCCc2ccc(-c3ccc(NS(C)(=O)=O)cc3)cc2)c2cc(C)sc2n1` [Example 277, N-(4′-(3-((2-ethyl-6-methylthieno[2,3-d]pyrimidin-4-yl)amino)propyl)-[1,1′-biphenyl]-4-yl)methanesul-fonamide] yielded an IC50 of 0.63 µM. The result for `CCc1nc(NCCCc2ccc(-c3ccc(=O)[nH]c3)cc2)c2cc(C)sc2n1` [Example 278, 5-(4-(3-((2-ethyl-6-methylthieno[2,3-d]pyrimidin-4-yl)amino)propyl)phenyl)pyridin-2(1H)-one] reads 0.71 µM; that for `CCc1nc(NCCCc2ccc(-c3ccc(NC(C)=O)cc3)cc2)c2cc(C)sc2n1` [Example 279, N-(4′-(3-((2-ethyl-6-methylthieno[2,3-d]pyrimidin-4-yl)amino)propyl)-[1,1′-biphenyl]-4-yl)acetamide], 1.1 µM. Under `CCc1nc(NCCCc2ccc(-c3cccc(OC(F)(F)F)c3)cc2)c2cc(C)sc2n1` [Example 280] stands 0.14 µM; under `CCc1nc(NCCCc2ccc(-c3ccc(Cl)c(Cl)c3)cc2)c2cc(C)sc2n1` [Example 281, N-(3-(3′,4′-dichloro-[1,1′-biphenyl]-4-yl)propyl)-2-ethyl-6-methylthieno[2,3-d]pyrimidin-4-amine], 0.044 µM. `Cc1cc2c(NCCCc3ccc(-c4ccc(Cl)cc4)cc3)nc(C(F)(F)F)nc2s1` [Example 282, N-(3-(4′-chloro-[1,1′-biphenyl]-4-yl)propyl)-6-methyl-2-(trifluoromethyl) thieno[2,3-d]pyrimidin-4-amine] had a 50% inhibitory concentration (IC50) of 0.13 µM. For `CCc1nc(NCCCc2ccc(-c3cccc(S(C)(=O)=O)c3)cc2)c2cc(C)sc2n1` [Example 283, 2-ethyl-6-methyl-N-(3-(3′-(methylsulfonyl)-[1,1′-biphenyl]-4-yl)propyl)thieno [2,3-d]pyrimidin-4-amine], it took 3.2 µM to reach half-maximal inhibition (IC50). In turn, `CCc1nc(NCCCc2ccc(-c3cccc(C(=O)NC)c3)cc2)c2cc(C)sc2n1` [Example 284, 4′-(3-((2-ethyl-6-methylthieno[2,3-d]pyrimidin-4-yl)amino)propyl) N-methyl-[1,1′-biphenyl]-3-carboxamide] had an IC50 of 2.9 µM. The result for `Cc1cc2c(NCCCc3ccc(-c4ccc(OC(F)(F)F)cc4)cc3)nc(-c3ccc(OC(F)(F)F)cc3)nc2s1` [Example 285, 6-methyl-N-(3-(4′-(trifluoromethoxy)-[1,1′-biphenyl]-4-yl)propyl)-2-(4-(trifluoromethoxy)phenyl)thieno [2,3-d]pyrimidin-4-amine] reads over 10 µM; that for `Cc1cc2c(NCCCc3ccc(-c4ccc(OC(F)(F)F)cc4)cc3)nc(-c3ccccn3)nc2s1` [Example 286, 6-methyl-2-(pyridin-2-yl)-N-(3-(4′-(trifluoromethoxy)-[1,1′-biphenyl]-4-yl)propyl)thieno [2,3-d]pyrimidin-4-amine], 0.13 µM. The result for `Cc1cc2c(NCCCc3ccc(-c4ccc(F)c(F)c4)cc3)nc(C(F)(F)F)nc2s1` [Example 287, N-(3-(3′,4′-difluoro-[1,1′-biphenyl]-4-yl)propyl)-6-methyl-2-(trifluoromethyl) thieno[2,3-d]pyrimidin-4-amine] reads 0.19 µM.

`COc1ccc(-c2ccc(CCCNc3nc(C(F)(F)F)nc4sc(C)cc34)cc2)cc1` [Example 288, N-(3-(4′-methoxy-[1,1′-biphenyl]-4-yl)propyl)-6-methyl-2-(trifluoromethyl) thieno[2,3-d]pyrimidin-4-amine] had an IC50 of 0.31 µM.

Compound `CSc1nc(NCCCc2ccc(-c3ccc(OC(F)(F)F)cc3)cc2)c2cc(C)sc2n1` [Example 289, 6-methyl-2-(methylthio)-N-(3-(4′-(trifluoromethoxy)-[1,1′-biphenyl]-4-yl)propyl)thieno [2,3-d]pyrimidin-4-amine] registered a half-inhibitory concentration (IC50) of 0.008 µM.

The compound `Cc1cc2c(NCCCc3ccc(-c4ccc(Cl)c(Cl)c4)cc3)nc(C(F)(F)F)nc2s1` [Example 290, N-(3-(3′,4′-dichloro-[1,1′-biphenyl]-4-yl)propyl)-6-methyl-2-(trifluoromethyl) thieno[2,3-d]pyrimidin-4-amine] came in with an IC50 of 0.39 µM.

`Cc1cc2c(NCCCc3ccc(-c4ccc(OC(F)(F)F)cc4)cc3)nc(-c3ccoc3)nc2s1` [Example 291, 2-(furan-3-yl)-6-methyl-N-(3-(4′-(trifluoromethoxy)-[1,1′-biphenyl]-4-yl)propyl)thieno [2,3-d]pyrimidin-4-amine] had an IC50 of 0.008 µM. The result for `CSc1nc(NCCCc2ccc(-c3ccc(OC(F)(F)F)cc3)cc2)c2nc(C)sc2n1` [Example 292, 2-methyl-5-(methylthio)-N-(3-(4′-(trifluoromethoxy)-[1,1′-biphenyl]-4-yl)propyl)thiazolo [5,4-d]pyrimidin-7-amine] reads 0.016 µM; that for `Cc1cc2c(NCCCc3ccc(-c4cccnc4)cc3)nc(C(F)(F)F)nc2s1` [Example 293, 6-methyl-N-(3-(4-(pyridin-3-yl)phenyl)propyl)-2-(trifluoromethyl) thieno [2,3-d]pyrimidin-4-amine], 2.5 µM. The result for `Cc1nc2c(NCCCc3ccc(-c4ccc(OC(F)(F)F)cc4)cc3)nc(-c3ccoc3)nc2s1` [Example 294, 5-(furan-3-yl)-2-methyl-N-(3-(4′-(trifluoromethoxy)-[1,1′-biphenyl]-4-yl)propyl)thiazolo [5,4-d]pyrimidin-7-amine] reads 0.089 µM; that for `Cc1cc2c(NCCCc3ccc(-c4ccc(OC(F)(F)F)cc4)cc3)nc(-c3ccc(F)cc3)nc2s1` [Example 295, 2-(4-fluorophenyl)-6-methyl-N-(3-(4′-(trifluoromethoxy)-[1,1′-biphenyl]-4-yl)propyl)thieno [2,3-d]pyrimidin-4-amine], 0.4 µM. In turn, `FC(F)(F)Oc1ccc(-c2ccc(CCCNc3nc(C(F)(F)F)nc4sccc34)cc2)cc1` [Example 296, N-(3-(4′-(trifluoromethoxy)-[1,1′-biphenyl]-4-yl)propyl)-2-(trifluoromethyl) thieno[2,3-d]pyrimidin-4-amine] displayed an IC50 of 0.27 µM. The result for `CCc1nc(NCCCc2ccc(-c3ccc(C(F)(F)F)nc3)cc2)c2cc(C)sc2n1` [Example 297, 2-ethyl-6-methyl-N-(3-(4-(6-(trifluoromethyl)pyridin-3-yl)phenyl)propyl) thieno[2,3-d]pyrimidin-4-amine] reads 0.034 µM.

On to `Cc1cc2c(NCCCc3ccc(-c4ccc(Cl)c(Cl)c4)cc3)nc(-c3ccoc3)nc2s1` [Example 298, N-(3-(3′,4′-dichloro-[1,1′-biphenyl]-4-yl)propyl)-2-(furan-3-yl)-6-methylthieno[2,3-d]pyrimidin-4-amine], for which 0.026 µM corresponded to half-maximal inhibition (IC50). The result for `CCc1nc(NCCCc2ccc(-c3ccc(N(C)C)cc3)cc2)c2cc(C)sc2n1` [Example 299, N-(3-(4′-(dimethylamino)-[1,1′-biphenyl]-4-yl)propyl)-2-ethyl-6-methylthieno[2,3-d]pyrimidin-4-amine] reads 0.026 µM; that for `CCc1nc(NCCCc2ccc(-c3ccc(Cl)cc3Cl)cc2)c2cc(C)sc2n1` [Example 300, N-(3-(2′,4′-dichloro-[1,1′-biphenyl]-4-yl)propyl)-2-ethyl-6-methylthieno[2,3-d]pyrimidin-4-amine], 0.076 µM; that for `CCc1nc(NCCCc2ccc(-c3ccc(Cl)c(F)c3)cc2)c2cc(C)sc2n1` [Example 301, N-(3-(4′-chloro-3′-fluoro-[1,1′-biphenyl]-4-yl)propyl)-2-ethyl-6-methylthieno[2,3-d]pyrimidin-4-amine], 0.045 µM.

With `CCc1nc(NCCCc2ccc(-c3ccc(C4CC4)cc3)cc2)c2cc(C)sc2n1` [Example 302, N-(3-(4′-cyclopropyl-[1,1′-biphenyl]-4-yl)propyl)-2-ethyl-6-methylthieno[2,3-d]pyrimidin-4-amine], the half-maximal inhibitory concentration (IC50) came out at 0.027 µM. `CCc1nc(NCCCc2ccc(-c3ccc(C#N)cc3)cc2)c2cc(C)sc2n1` [Example 303, 4′-(3-((2-ethyl-6-methylthieno[2,3-d]pyrimidin-4-yl)amino)propyl)-[1,1′-biphenyl]-4-carbonitrile] came in with an IC50 of 0.037 µM. In turn, `CCc1nc(NCCCc2ccc(-c3ccc(F)cc3)cc2)c2cc(C)sc2n1` [Example 304, 2-ethyl-N-(3-(4′-fluoro-[1,1′-biphenyl]-4-yl)propyl)-6-methylthieno[2,3-d]pyrimidin-4-amine] yielded an IC50 of 0.04 µM.

With `CCc1nc(NCCCc2ccc(-c3ccc(OC4CC4)cc3)cc2)c2cc(C)sc2n1` [Example 305, N-(3-(4′-cyclopropoxy-[1,1′-biphenyl]-4-yl)propyl)-2-ethyl-6-methylthieno[2,3-d]pyrimidin-4-amine], the concentration for half-maximal inhibition (IC50) was determined as 0.057 µM. The result for `CCc1nc(NCCCc2ccc(-c3ccc(OC(F)(F)F)c(F)c3)cc2)c2cc(C)sc2n1` [Example 306, 2-ethyl-N-(3-(3′-fluoro-4′-(trifluoromethoxy)-[1,1′-biphenyl]-4-yl)propyl)-6-methylthieno[2,3-d]pyrimidin-4-amine] reads 0.047 µM.

For the compound `CCc1nc(NCCCc2ccc(-c3c(Cl)cccc3Cl)cc2)c2cc(C)sc2n1` [Example 307, N-(3-(2′,6′-dichloro-[1,1′-biphenyl]-4-yl)propyl)-2-ethyl-6-methylthieno[2,3-d]pyrimidin-4-amine], 0.83 µM corresponded to half-maximal inhibition (IC50).
